SMILES strings stand for the structures. Counter-ions that a name gives are not always drawn.

Here are results for 26 compounds from patent US10112911B2, “Substituted cyanoguanidines as oral anti-virals” (Abbvie Inc, priority 2012, dated 2018).

The first assay relates to RSV (Group A, Long Strain). The assay is described as follows: Cytopathetic effect (CPE) protection antiviral assay, MTT readout. The format is cell-based. Conditions: human respiratory syncytial virus, HEp-2, 96 h, HEp-2 cells, 0.2 MOI RSV, 4 days incubation, protection from CPE (Table 1); read-out: RSV EC50. As for the experimental part:
HEp-2 cells and RSV (Group A, Long Strain) were obtained from the American Type Culture Collection (Manassas, Va.).
A cytopathetic effect (CPE) protection assay was performed to determine the ability of a compound to protect the cells from viral infection and thus the CPE induced by viral infection. 96-Well plates were first seeded with […] per well in Dulbecco's modified Eagle's medium (DMEM) containing 10% fetal bovine serum (FBS). One day after the cells were seeded, they were preincubated with serial dilutions of compounds prepared in 100 μL assay medium (DMEM mixed with F12 medium at a 1:1 ratio, supplemented with 2% FBS and 1 mM sodium pyruvate) for 1 hour at 37° C. 100 μL of assay medium containing 0.2 multiplicity of infection (MOI) of RSV was then added to each well of cells. In addition to wells containing infected cells incubated with compounds, each plate also contained replicates of two kinds of controls: (1) Virus control contained cells infected with 0.2 MOI of RSV in assay medium, (2) Uninfected cell control contained cells incubated with assay medium only. After 4 days of incubation at 37° C., the viability of cells was assessed using MTT (Thiazolyl blue tetrazolium bromide, Sigma). A stock solution of MTT, at a concentration of 4 mg/mL in phosphate-buffered saline, was added to all wells at 25 μL per well. Plates were further incubated for 4 hours, and each well was then treated with 50 μL of a solution containing 20% sodium dodecyl sulfate (SDS) and 0.02 N HCl. After an overnight incubation, the plates were measured on a BioTek® microtiter plate reader at wavelengths of 570 nm and 650 nm. The MTT detection is based on the fact that viable (uninfected) cells can reduce the tetrazolium salts into colored formazan products, which can then be quantitated by spectrometry. Based on the spectrometric absorbance of each sample, the percent of protection from CPE, which is an indicator of protection from viral infection, can be calculated for each compound and the 50% effective concentrations (EC50) can be calculated using a nonlinear regression curve fitting equation provided by the GraphPad Prism® 4 software.
Compounds were tested to determine both their antiviral and toxicity to determine their therapeutic window. Determination of the EC50 and TD50 of these active compounds were repeated one additional time to confirm the window.
In the case of `CC(C)C1CN(c2cnc3ccccc3n2)CCN1/C(=N\C#N)Nc1ccc2c(c1)OCO2` (centres unmarked) [Example 1.14, N-(1,3-benzodioxol-5-yl)-N′-cyano-2-isopropyl-4-(quinoxalin-2-yl)piperazine-1-carboximidamide], the EC50 was greater than 10 µM. For the compound `CC(C)C1CN(c2cnc3ccccc3n2)CCN1/C(=N\C#N)Nc1ccc(Cl)cc1` (centres unmarked) [Example 1.15, N-(4-chlorophenyl)-N′-cyano-2-isopropyl-4-(quinoxalin-2-yl)piperazine-1-carboximidamide], the EC50 was greater than 10 µM. The same measure, in the same setting: the same measure for `Cc1ccc(N/C(=N/C#N)N2CCN(c3cnc4ccccc4n3)CC2C(C)C)cc1` (centres unmarked) [Example 1.16, N′-cyano-2-isopropyl-N-(4-methylphenyl)-4-(quinoxalin-2-yl)piperazine-1-carboximidamide]: greater than 10 µM. As to `Cc1cccc(C)c1N/C(=N/C#N)N1CCN(c2cnc3ccccc3n2)CC1C(C)C` (centres unmarked) [Example 1.17, N′-cyano-N-(2,6-dimethylphenyl)-2-isopropyl-4-(quinoxalin-2-yl)piperazine-1-carboximidamide], the EC50 was found to be 0.54 µM. As for `COc1ccccc1N/C(=N/C#N)N1CCN(c2cnc3ccccc3n2)CC1C(C)C` (centres unmarked) [Example 1.18, N′-cyano-2-isopropyl-N-(2-methoxyphenyl)-4-(quinoxalin-2-yl)piperazine-1-carboximidamide], the EC50 is 1.16 µM. On the same count and under the same terms, the same measure for `CC(C)C1CN(c2cnc3ccccc3n2)CCN1/C(=N\C#N)Nc1cccc(F)c1` (centres unmarked) [Example 1.20, N′-cyano-N-(3-fluorophenyl)-2-isopropyl-4-(quinoxalin-2-yl)piperazine-1-carboximidamide]: greater than 10 µM. Same read-out and setting: next, `CC(C)C1CN(c2cnc3ccccc3n2)CCN1/C(=N\C#N)Nc1ccccc1F` (centres unmarked) [Example 1.21, N′-cyano-N-(2-fluorophenyl)-2-isopropyl-4-(quinoxalin-2-yl)piperazine-1-carboximidamide]: 2.07 µM; `Cc1cccc(N/C(=N/C#N)N2CCN(c3cnc4ccccc4n3)CC2C(C)C)c1` (centres unmarked) [Example 1.22, N′-cyano-2-isopropyl-N-(3-methylphenyl)-4-(quinoxalin-2-yl)piperazine-1-carboximidamide]: 0.4 µM. The same measure, in the same setting: the same measure for `CC(C)C1CN(c2cnc3ccccc3n2)CCN1/C(=N\C#N)Nc1ccc(F)cc1` (centres unmarked) [Example 1.23, N′-cyano-N-(4-fluorophenyl)-2-isopropyl-4-(quinoxalin-2-yl)piperazine-1-carboximidamide]: greater than 10 µM; for `CC(C)C1CN(c2cnc3ccccc3n2)CCN1/C(=N\C#N)Nc1ccc(C(F)(F)F)cc1` (centres unmarked) [Example 1.24, N′-cyano-2-isopropyl-4-(quinoxalin-2-yl)-N-[4-(trifluoromethyl)phenyl]piperazine-1-carboximidamide]: greater than 6.68 µM. With `CC(C)C1CN(c2cnc3ccccc3n2)CCN1/C(=N\C#N)Nc1cccc(C(F)(F)F)c1` (centres unmarked) [Example 1.25, N′-cyano-2-isopropyl-4-(quinoxalin-2-yl)-N-[3-(trifluoromethyl)phenyl]piperazine-1-carboximidamide], the EC50 is greater than 7.29 µM. With `CC(C)c1ccccc1N/C(=N/C#N)N1CCN(c2cnc3ccccc3n2)CC1C(C)C` (centres unmarked) [Example 1.26, N′-cyano-2-isopropyl-N-(2-isopropylphenyl)-4-(quinoxalin-2-yl)piperazine-1-carboximidamide], the EC50 was greater than 10 µM. On the same count and under the same terms, next, `CC(C)C1CN(c2cnc3ccccc3n2)CCN1/C(=N\C#N)Nc1ccccc1OC(F)(F)F` (centres unmarked) [Example 1.27, N′-cyano-2-isopropyl-4-(quinoxalin-2-yl)-N-[2-(trifluoromethoxy)phenyl]piperazine-1-carboximidamide]: greater than 10 µM; `CC(C)C1CN(c2cnc3ccccc3n2)CCN1/C(=N\C#N)Nc1cccc(Cl)c1` (centres unmarked) [Example 1.28, N-(3-chlorophenyl)-N′-cyano-2-isopropyl-4-(quinoxalin-2-yl)piperazine-1-carboximidamide]: 3.1 µM. Consider `Cc1c(F)cccc1N/C(=N/C#N)N1CCN(c2cnc3ccccc3n2)CC1C(C)C` (centres unmarked) [Example 1.29, N′-cyano-N-(3-fluoro-2-methylphenyl)-2-isopropyl-4-(quinoxalin-2-yl)piperazine-1-carboximidamide], for which the EC50 was greater than 3.16 µM. With `CC(C)C1CN(c2cnc3ccccc3n2)CCN1/C(=N\C#N)Nc1ccc(F)cc1Cl` (centres unmarked) [Example 1.30, N-(2-chloro-4-fluorophenyl)-N′-cyano-2-isopropyl-4-(quinoxalin-2-yl)piperazine-1-carboximidamide], the EC50 was greater than 10 µM.

In the case of `Cc1ccc(F)cc1N/C(=N/C#N)N1CCN(c2cnc3ccccc3n2)CC1C(C)C` (centres unmarked) [Example 1.31, N′-cyano-N-(5-fluoro-2-methylphenyl)-2-isopropyl-4-(quinoxalin-2-yl)piperazine-1-carboximidamide], the EC50 stood at 2 µM. With `Cc1cc(F)ccc1N/C(=N/C#N)N1CCN(c2cnc3ccccc3n2)CC1C(C)C` (centres unmarked) [Example 1.32, N′-cyano-N-(4-fluoro-2-methylphenyl)-2-isopropyl-4-(quinoxalin-2-yl)piperazine-1-carboximidamide], the EC50 is greater than 10 µM. As to `Cc1cccc(F)c1N/C(=N/C#N)N1CCN(c2cnc3ccccc3n2)CC1C(C)C` (centres unmarked) [Example 1.33, N′-cyano-N-(2-fluoro-6-methylphenyl)-2-isopropyl-4-(quinoxalin-2-yl)piperazine-1-carboximidamide], the EC50 was determined as 0.3 µM. As for `Cc1cc(F)c(F)cc1N/C(=N/C#N)N1CCN(c2cnc3ccccc3n2)CC1C(C)C` (centres unmarked) [Example 1.34, N′-cyano-N-(4,5-difluoro-2-methylphenyl)-2-isopropyl-4-(quinoxalin-2-yl)piperazine-1-carboximidamide], the EC50 was greater than 3.1 µM. Same read-out and setting: next, `Cc1ccccc1CN/C(=N/C#N)N1CCN(c2cnc3ccccc3n2)CC1C(C)C` (centres unmarked) [Example 1.35, N′-cyano-2-isopropyl-N-(2-methylbenzyl)-4-(quinoxalin-2-yl)piperazine-1-carboximidamide]: greater than 10 µM.

With `CC(C)C1CN(c2cnc3ccccc3n2)CCN1/C(=N\C#N)Nc1cc(C(C)(C)C)nn1C` (centres unmarked) [Example 1.36, N-(3-tert-butyl-1-methyl-1H-pyrazol-5-yl)-N′-cyano-2-isopropyl-4-(quinoxalin-2-yl)piperazine-1-carboximidamide], the EC50 is greater than 6.6 µM.

With `Cc1ccccc1N/C(=N/C#N)N1CCN(c2cnc3ccccc3n2)CC1CC(C)C` (centres unmarked) [Example 1.37, N′-cyano-2-isobutyl-N-(2-methylphenyl)-4-(quinoxalin-2-yl)piperazine-1-carboximidamide], the EC50 amounted to 0.4 µM. On the same count and under the same terms, next, `Cc1cccc(N/C(=N/C#N)N2CCN(c3cnc4ccccc4n3)CC2CC(C)C)c1` (centres unmarked) [Example 1.38, N′-cyano-2-isobutyl-N-(3-methylphenyl)-4-(quinoxalin-2-yl)piperazine-1-carboximidamide]: greater than 3.1 µM.

Turning to `CC(C)CC1CN(c2cnc3ccccc3n2)CCN1/C(=N\C#N)Nc1ccccc1F` (centres unmarked) [Example 1.39, N′-cyano-N-(2-fluorophenyl)-2-isobutyl-4-(quinoxalin-2-yl)piperazine-1-carboximidamide], the EC50 is greater than 10 µM.

The assay is the same for the next values; noted with them: human respiratory syncytial virus, HEp-2, 96 h, read-out: RSV EC50.
Turning to `Cc1ccccc1N/C(=N/C#N)N1CCN(c2cnc3ccccc3n2)C[C@H]1C(C)C` [Example 1.12, (2R)—N′-cyano-2-isopropyl-N-(2-methylphenyl)-4-(quinoxalin-2-yl)piperazine-1-carboximidamide trifluoroacetate], the EC50 is greater than 32 µM.
